Results reported in patent US8318950B2, “N-acyl amino acid derivatives, a method for the preparation thereof, a pharmaceutical composition and use thereof as anti-allergic, anti-inflammatory and hypolipidemic agents” (Otkrytoe Aktsionernoe Obschestvo-Otechestvennye Lekarstva, priority 2005, dated 2012).

Assays:
[1] = test system: guinea pig blood basophils; assay: In vitro ovalbumin (OA)-induced blood basophil degranulation of immunized guinea pig; format: cell-based; conditions: for inhibition at 1000 µM / inhibition at 100 µM / inhibition at 10 µM: Cavia porcellus, read-out: Complete degranulation inhibition (CDI)
Description: Leukocytes from guinea pig blood were isolated according to the Freemel's method [Immunologicheskiye Metody under edition of G. Frimel/Moscow., “Meditsina” publishers, 1987, p. 222 in the inventor's modification].
Guinea pigs of both sexes weighing from 600 to 800 g were used to conduct the test. The animals were once immunized with a mixture of 10 μg ovalbumin and 100 mg aluminum hydroxide per one animal according to Andersson [Anderson P. Antigen-induced bronchial anaphylaxis in actively sensitized guinea-pigs.//Allergy. 1980. Vol. 35. P. 63-71].
Under ester anesthesia, 15 ml blood were drawn from guinea pig heart. Double precipitation of cells using EDTA and a citrate-containing precipitating liquid was used to isolate basophils in the leukocyte suspension.
Blood was mixed with 5% EDTA.Na2 2H2O (“Sigma”) solution at 9:1 ratio and in 30 minutes it was subjected to mild centrifugation (for 12 minutes at 80 g). Supernatant was collected and centrifuged for 15 minutes at 500 g.
To the remaining cells, a citrate-containing precipitating liquid (3) was added at proportion 3:10 (it was thermostated at 37° C. for 30 minutes). A supernatant fraction enriched by leukocytes was centrifuged for 7 minutes at 100 g. To leukocyte precipitate, 0.85% NaCl solution was added and cellular concentration was brought to 30×10^3 μl.
Protocol of the in vitro basophil degranulation test [Spravochnil po klinicheskim laboratomym metodam issledovaniya (A reference book on clinical-laboratory examination methods)/Edited by E. A. Cost/Moscow, “Meditsina” publishers, 1975, p. 130].
For the test, a centrifuge tube (3 tubes per each sample) was filled with 300 μl cellular suspension, then salt solution of a tested compound (or a salt solution in the control of spontaneous and maximum degranulation) was added and pre-incubated at 37° C. for 15 minutes, then into each tube 300 μl 1% OA solution was added (in the control of spontaneous degranulation a salt solution in the same amount was added) and once more pre-incubated at 37° C. for 10 minutes. Functional leukocyte concentration was 10^4/μl. Samples (100 μl) were taken off from each tube into separate tubes to assess a complete basophil degranulation, and to the remained cells, a cooled salt solution was added (5 ml into each tube) to arrest degranulation reaction, then the tubes were centrifuged for 7 min at 100 g, and from precipitate, preparations for microscopy were prepared. The preparations were fixed and stained according to the method of Seder et al. [Seder R. A. et al. Mouse splenic and bone marrow cell populations that express high—affinity Fcε receptors and produce interleukin-4 are highly enriched in basophils.//Proc. Natl. Acad. USA, 1991, V. 88, P. 2835-2839].
In order to detect a specific basophil granulation, the dye 0.5% alcyanic blue (pH 1.0) was used, nuclei were additionally stained with safranin (0.1% solution in 1% acetic acid). The preparations were used to assess a total degranulation inhibition.
A total degranulation inhibition (DI) (%) was calculated according to the formula: […]
max—% of degranulated basophils at the maximum degranulation (OA)
spontaneous—% of degranulated basophils in spontaneous degranulation (control)
experimental—% of degranulated basophils following exposure to the tested compound.
Assessment of a Complete Basophil Degranulation
Samples selected following basophil degranulation test (100 μl each) were poured into tubes with the dye (0.5% alcyane blue, pH 1.0) at ratio 1:1. Staining was carried out at room temperature for not less than 50 min. Stained basophils were calculated using the Fooks-Rosenthal chamber. Inhibition of a complete basophil degranulation (ICD) was calculated according to the formula: ICD(%)=1−[(Mm(c)−Mm(exper.)]/Mm(c)−Mm(OA)]×100, wherein
M m (c)—mean (by three samples) basophil number in the spontaneous basophil degranulation test
M±m (OA)—mean (by three samples) basophil number in the maximum antigen-induced basophil degranulation test; […]

[2] = test system: endogenous hypercholesterolemia in guinea pigs; assay: Model of endogenous hypercholesterolemia in guinea pigs (fat loading); format: in vivo, guinea pig; parameters: Serum total cholesterol / Serum total triglyceride levels: unit not given here; conditions: for Serum total cholesterol / Serum total triglyceride levels: fat loading + compound 500 μg/kg orally
Description: The study was carried out on male guinea pigs (Aguti line) weighing 304±25 g. The experiment lasted 31 days. The control group included 6 guinea pigs (intact animals). The compounds studied were administered from day 1 of the experiment (from day 1 of administering fat loading).
The animals of experimental groups received orally for 31 days a compound studied and fat loading. The compound studied at doses indicated below was administered in the form of an aqueous solution (0.5 ml per an animal); fat loading (a mixture of porcine fat and preliminary heated corn oil at 4:1 ratio by volume, at the rate of 5 ml/kg weight 0.5 h post administering the substance studied.
1) “control”—intact animals;
2) “fat”—animals that received fat loading only
3) “compound IV”—animals that received fat loading+compound IV at dose 500 μg/kg body weight;
4) “compound V”—animals that received fat loading+compound V at dose 500 μg/kg body weight.
Statistical processing was carried out using a mono-factorial analysis of variance.

[3] = test system: antigen-induced bronchial spasm; conditions: oral and intratracheal route, 50 μg/kg; cited from earlier work
[4] = test system: animals with atherogenic loading; conditions: WO 99/01103, similar biological experiment; cited from earlier work
[5] = test system: delayed type hypersensitivity; conditions: doses 50 and 500 μg/kg; cited from earlier work
[6] = test system: passive cutaneous anaphylaxis; conditions: in vivo; cited from earlier work
[7] = test system: carrageenan-induced rat paw edema; assay: Carrageenan rat paw edema; format: in vivo; conditions: 1% gel applied on the paw three times; paw volume 4 hours post carrageenan
Description: The experiments were performed on white outbred male rats weighing 250 g. A total amount of animals per an experiment was 12.
The model of carrageenan-induced edema seconding to the method of Winter et al. was used (Winter et al. Studies of the mediators of the acute inflammatory response induced in rats in different sites by carrageenan and turpentine.//J. Phamacol. 1971. V. 104. P. 15-29). 0.1 ml 1% carrageenan solution (SERVA) was subplantarly injected into the right rat paw. The animals were placed into individual chambers. Gel (1%) comprising a substance tested was applied on the paw three times: immediately following carrageenan administration, ate 1 and 2 hours post administration. 4 hours post administration of carrageenan, paw volumes were measured using a plethysmograph (Ugo Basile) Therapeutic effect of the gel was assessed by inhibition degree of inflammatory reaction in comparison with the intact left paw of the given animal and rat paw reaction of the control (untreated) group inflammatory reaction inhibition expressed in percent, was calculated according to the formula: […]

[8] = day 31, blood serum, 500 μg/kg orally (Table 24)
[9] = day 31, blood serum, 500 μg/kg orally (Table 25)

Compound: O=C(O)CCC(=O)N[C@@H](Cc1c[nH]cn1)C(=O)O [Compound V, N^α-succinyl-L-histidine]
- Number of completely degranulated basophils ([1]; 10^−3 M): 35.3 ± 7.29%
- Number of completely degranulated basophils ([1]; 10^−4 M): 31.2 ± 6.8%
- Number of completely degranulated basophils ([1]; 10^−5 M): 24.6 ± 10.38%
- inhibition at 1000 µM ([1]; 10^−3 M): 10.6 ± 7.6%
- inhibition at 100 µM ([1]; 10^−4 M): 18.9 ± 11.8%
- inhibition at 10 µM ([1]; 10^−5 M): 44 ± 11.3%
- Serum total cholesterol ([2]; Day 28): 52.9 ± 6.5
- Serum total triglyceride levels ([2]; Day 28): 62.3 ± 5.4
- Serum total cholesterol ([2]; Day 31): 46.3 ± 4.1
- Serum total triglyceride levels ([2]; Day 31): 56.0 ± 6.1
- lowered LDL cholesterol ([2]; by day 31 of the experiment): 38%
- lowered total cholesterol level ([2]; by day 31 of the experiment): 37.8%
- Cholesterol, LDL [2, 8]: 41.9 ± 2.7 mg/100 ml
- Cholesterol, Total [2, 8]: 46.3 ± 4.1 mg/100 ml
- Cholesterol, VLDL [2, 8]: 2.1 ± 0.4 mg/100 ml
- Triglycerides, LDL [2, 9]: 23.1 ± 1.9 mg/100 ml
- Triglycerides, Total [2, 9]: 56 ± 6.1 mg/100 ml
- Triglycerides, VLDL [2, 9]: 22.5 ± 4.4 mg/100 ml

Compound: O=C(O)CCCC(=O)NCCc1cnc[nH]1 [Glutaryl histamine, glutaryl histamine, reference compound]
- Complete degranulation inhibition (CDI) ([1]; 10^−3 M): 9.3 ± 5.5%
- Number of completely degranulated basophils ([1]; 10^−3 M): 31.6 ± 6.33%
- Complete degranulation inhibition (CDI) ([1]; 10^−4 M): 24.1 ± 1.1%
- Number of completely degranulated basophils ([1]; 10^−4 M): 25.3 ± 3.38%
- Complete degranulation inhibition (CDI) ([1]; 10^−5 M): 0%
- Number of completely degranulated basophils ([1]; 10^−5 M): 29.8 ± 6.73%
- Decrease in bronchial spasm value as compared to the control [3]: > 50%
- lowering total cholesterol level [4]: 9%
- intensity of delayed type hypersensitivity [5]: significantly lower intensity
- manifestations of passive cutaneous anaphylaxis [6]: capable of lowering manifestations

Compound: C[C@]12CCC(=O)C=C1CC[C@@H]1[C@@H]2[C@@H](O)C[C@@]2(C)[C@H]1CC[C@]2(O)C(=O)CO [Hydrocortisone, reference compound]
- Number of completely degranulated basophils ([1]; 10^−3 M): 10.0 ± 0.7%
- Number of completely degranulated basophils ([1]; 10^−4 M): 17.3 ± 0.9%
- Number of completely degranulated basophils ([1]; 10^−5 M): 20.0 ± 1.3%
- inhibition at 1000 µM ([1]; 10^−3 M): 71 ± 1.6%
- inhibition at 100 µM ([1]; 10^−4 M): 48 ± 0.8%
- inhibition at 10 µM ([1]; 10^−5 M): 40 ± 0.6%

Compound: COC(=O)[C@H](Cc1c[nH]cn1)NC(=O)CCC(=O)O [VI, N^α-succinyl-L-histidine methyl ester]
- inhibition of edema [7]: 44%

Compound: COC(=O)[C@H](Cc1c[nH]c2ccccc12)NC(=O)CCCC(=O)O [XIII, N^α-glutaryl-L-tryptophane methyl ester]
- inhibition of edema [7]: 40%

Compound: O=C(O)Cc1ccccc1Nc1c(Cl)cccc1Cl [diclofenac, reference compound]
- inhibition of edema [7]: 62%
